# Target: T1, human APJ receptor (Homo sapiens, UniProt P35414)
# T1 construct: expressed in transfected cells; host or cells: HEK293
# T1 sequence (P35414 1-380): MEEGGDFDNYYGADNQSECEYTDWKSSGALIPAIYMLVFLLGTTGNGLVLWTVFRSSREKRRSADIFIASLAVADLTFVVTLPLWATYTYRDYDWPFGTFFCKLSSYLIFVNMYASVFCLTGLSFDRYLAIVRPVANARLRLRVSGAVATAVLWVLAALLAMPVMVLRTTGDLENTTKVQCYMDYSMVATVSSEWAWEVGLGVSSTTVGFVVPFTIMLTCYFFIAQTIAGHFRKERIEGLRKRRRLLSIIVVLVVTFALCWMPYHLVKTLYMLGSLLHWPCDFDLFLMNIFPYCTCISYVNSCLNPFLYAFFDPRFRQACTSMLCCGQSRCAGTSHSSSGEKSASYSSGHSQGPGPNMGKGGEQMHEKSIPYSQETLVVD
# Experiment: Intracellular cAMP Accumulation Assay (APJ hcAMP, HTRF)
# Format: cell-based
# Settings: human APJ, cAMP accumulation; potency range class; read-out: hAPJ cAMP EC50 Potency range
# How it was run: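 Stably transfected HEK293 cells (5,000/well) incubated 30 min at room temperature with serially diluted compound, […] and 2 μM forskolin. cAMP measured by HTRF after 60 min with detection reagents, quantified against a cAMP standard curve; EC50 from variable-slope sigmoidal fit of inhibition of forskolin-stimulated cAMP.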
row,EC50 [nM],Structure (SMILES)
1,0.01 to 10,"COc1cccc(OC)c1-n1c(-c2ccc(F)cc2)nc(=O)c(C(=O)N2CCC(c3ccccc3Cl)C2)c1O (single isomer, unassigned) [Example 229, 5-[3-(2-chlorophenyl)pyrrolidine-1-carbonyl]-1-(2,6-dimethoxyphenyl)-2-(4-fluorophenyl)-6-hydroxy-1,4-dihydropyrimidin-4-one]"
2,0.01 to 10,"CCCCc1nc(=O)c(C(=O)N2CCC(c3ccccc3C#N)C2)c(O)n1-c1c(OC)cccc1OC (single isomer, unassigned) [Example 365, 2-(1-(2-butyl-1-(2,6-dimethoxyphenyl)-6-hydroxy-4-oxo-1,4-dihydropyrimidine-5-carbonyl)pyrrolidin-3-yl)benzonitrile]"
3,0.01 to 10,"CCCCc1nc(=O)c(C(=O)N2CCC(c3ncc(Cl)cc3F)C2)c(O)n1-c1c(OC)cccc1OC (single isomer, unassigned) [Example 357, 2-butyl-5-(3-(5-chloro-3-fluoropyridin-2-yl)pyrrolidine-1-carbonyl)-1-(2,6-dimethoxyphenyl)-6-hydroxypyrimidin-4(1H)-one]"

# Continued, compound first:
row,Structure (SMILES),EC50 [nM]
1,"COc1cccc(OC)c1-n1c(-c2cnn(C)c2)nc(=O)c(C(=O)N2CCC(c3c(F)cccc3F)C2)c1O (single isomer, unassigned) [Example 249, 5-[3-(2,6-difluorophenyl)pyrrolidine-1-carbonyl]-1-(2,6-dimethoxyphenyl)-6-hydroxy-2-(1-methyl-1H-pyrazol-4-yl)-1,4-dihydropyrimidin-4-one]",0.01 to 10
2,"COc1cccc(OC)c1-n1c(-c2cccc(C)c2)nc(=O)c(C(=O)N2CCC(c3ncc(F)cc3F)C2)c1O (single isomer, unassigned) [Example 244, 5-[3-(3,5-difluoropyridin-2-yl)pyrrolidine-1-carbonyl]-1-(2,6-dimethoxyphenyl)-6-hydroxy-2-(3-methylphenyl)-1,4-dihydropyrimidin-4-one]",0.01 to 10
3,"COc1cccc(OC)c1-n1c(-c2cccc(C)c2)nc(=O)c(C(=O)N2CCC(c3c(F)cccc3F)C2)c1O (single isomer, unassigned) [Example 241, 5-[3-(2,6-difluorophenyl)pyrrolidine-1-carbonyl]-1-(2,6-dimethoxyphenyl)-6-hydroxy-2-(3-methylphenyl)-1,4-dihydropyrimidin-4-one]",0.01 to 10
4,"COc1cccc(OC)c1-n1c(-c2ccn(C)n2)nc(=O)c(C(=O)N2CCC(c3c(F)cccc3F)C2)c1O (single isomer, unassigned) [Example 251, 5-[3-(2,6-difluorophenyl)pyrrolidine-1-carbonyl]-1-(2,6-dimethoxyphenyl)-6-hydroxy-2-(1-methyl-1H-pyrazol-3-yl)-1,4-dihydropyrimidin-4-one]",0.01 to 10
5,"CCc1cccc(CC)c1-n1c(-c2csc(C)n2)nc(=O)c(C(=O)N2CC[C@H](c3ccccc3)C2)c1O [Example 301, 1-(2,6-diethylphenyl)-6-hydroxy-2-(2-methyl-1,3-thiazol-4-yl)-5-[(3R)-3-phenylpyrrolidine-1-carbonyl]-1,4-dihydropyrimidin-4-one]",0.01 to 10
6,"CCc1cccc(CC)c1-n1c(-c2ccn(CC(C)C)n2)nc(=O)c(C(=O)N2CCC(c3ccc(F)cn3)C2)c1O (single isomer, unassigned) [Example 318, 1-(2,6-diethylphenyl)-5-[3-(5-fluoropyridin-2-yl)pyrrolidine-1-carbonyl]-6-hydroxy-2-[1-(2-methylpropyl)-1H-pyrazol-3-yl]-1,4-dihydropyrimidin-4-one]",0.01 to 10
7,"CCCCc1nc(=O)c(C(=O)N2CCC(c3ncc(Cl)cc3F)C2)c(O)n1-c1c(OC)cccc1OC (single isomer, unassigned) [Example 356, 2-butyl-5-(3-(5-chloro-3-fluoropyridin-2-yl)pyrrolidine-1-carbonyl)-1-(2,6-dimethoxyphenyl)-6-hydroxypyrimidin-4(1H)-one]",0.01 to 10
8,"COc1cccc(OC)c1-n1c(-c2cncc(C)c2)nc(=O)c(C(=O)N2CCC(c3ccc(F)cc3)C2)c1O (single isomer, unassigned) [Example 232, 1-(2,6-dimethoxyphenyl)-5-[3-(4-fluorophenyl)pyrrolidine-1-carbonyl]-6-hydroxy-2-(5-methylpyridin-3-yl)-1,4-dihydropyrimidin-4-one]",0.01 to 10

# Same assay, conditions: human APJ, intracellular cAMP accumulation; read-out: hAPJ cAMP EC50 Potency range
row,EC50 [nM],Structure (SMILES)
1,10 to 100,"CCCCc1nc(=O)c(C(=O)N2CC[C@H](NC(=O)OCc3ccccc3)C2)c(O)n1-c1c(OC)cccc1OC [Example 58, benzyl N-[(3S)-1-[2-butyl-1-(2,6-dimethoxyphenyl)-6-hydroxy-4-oxo-1,4-dihydropyrimidine-5-carbonyl]pyrrolidin-3-yl]carbamate]"
2,0.01 to 10,"CCOCc1nc(=O)c(C(=O)N2CCC(c3cccnc3)C2)c(O)n1-c1c(OC)cccc1OC (single isomer, unassigned) [Example 82, 1-(2,6-dimethoxyphenyl)-2-(ethoxymethyl)-6-hydroxy-5-[3-(pyridin-3-yl)pyrrolidine-1-carbonyl]-1,4-dihydropyrimidin-4-one]"
3,0.01 to 10,"COc1cccc(OC)c1-n1c(COC2CC2)nc(=O)c(C(=O)N2CCC(c3ccc(Cl)cc3)C2)c1O (single isomer, unassigned) [Example 21, 5-(3-(4-chlorophenyl)pyrrolidine-1-carbonyl)-2-(cyclopropoxymethyl)-1-(2,6-dimethoxyphenyl)-6-hydroxypyrimidin-4(1H)-one]"
4,10 to 100,"CCCCc1nc(=O)c(C(=O)N2CC[C@@H](c3ccccc3)C2)c(O)n1[C@@H](C)C1CC1 [Example 131, 2-butyl-3-[(1S)-1-cyc1opropylethyl]-6-hydroxy-5-[(3S)-3-phenylpyrrolidine-1-carbonyl]-3,4-dihydropyrimidin-4-one]"
5,0.01 to 10,"CC[C@@H](c1cc(F)cc(F)c1)n1c(-c2ccn(CC)n2)nc(=O)c(C(=O)N2CCC(c3ncccc3F)C2)c1O (single isomer, unassigned) [Example 181]"
6,0.01 to 10,"COc1cccc(OC)c1-n1c(CCC2CC2)nc(=O)c(C(=O)N2CCC(c3ncccc3F)C2)c1O (single isomer, unassigned) [Example 179, 2-(2-cyclopropylethyl)-1-(2,6-dimethoxyphenyl)-5-[3-(3-fluoropyridin-2-yl)pyrrolidine-1-carbonyl]-6-hydroxy-1,4-dihydropyrimidin-4-one]"

# More lines, now with the values behind:
row,Structure (SMILES),EC50 [nM]
1,"CCCCc1nc(=O)c(C(=O)N2CC[C@@H](c3ccccc3)C2)c(O)n1[C@H](CC)c1ccccc1 [Example 128, 2-butyl-6-hydroxy-3-[(1R)-1-phenylpropyl]-5-[(3S)-3-phenylpyrrolidine-1-carbonyl]-3,4-dihydropyrimidin-4-one]",10 to 100
2,"COc1cccc(OC)c1-n1c(COC(C)C)nc(=O)c(C(=O)N2CCC(c3ccccc3C(F)(F)F)C2)c1O (single isomer, unassigned) [Example 101, 1-(2,6-dimethoxyphenyl)-6-hydroxy-2-[(propan-2-yloxy)methyl]-5-{3-[2-(trifluoromethyl)phenyl]pyrrolidine-1-carbonyl}-1,4-dihydropyrimidin-4-one]",0.01 to 10
3,"CC[C@@H](c1cc(F)cc(F)c1)n1c(-c2ccn(C)n2)nc(=O)c(C(=O)N2CCC(c3ccc(F)cn3)C2)c1O (single isomer, unassigned) [Example 185]",0.01 to 10
4,"CC[C@@H](c1cc(F)cc(F)c1)n1c(-c2cnn(C)c2)nc(=O)c(C(=O)N2CCC(c3ccccc3OC)C2)c1O (single isomer, unassigned) [Example 198]",0.01 to 10
5,"CCCCc1nc(=O)c(C(=O)N2CC[C@@H](c3ccccc3)C2)c(O)n1[C@H](C)c1ccccc1OC [Example 135, 2-butyl-6-hydroxy-3-[(1R)-1-(2-methoxyphenyl)ethyl]-5-[(3S)-3-phenylpyrrolidine-1-carbonyl]-3,4-dihydropyrimidin-4-one]",10 to 100
6,"COc1cccc(OC)c1-n1c(COC(C)(C)C)nc(=O)c(C(=O)N2CCC(c3ccccc3F)C2)c1O (single isomer, unassigned) [Example 50, 2-[(tert-butoxy)methyl]-1-(2,6-dimethoxyphenyl)-5-[3-(2-fluorophenyl)pyrrolidine-1-carbonyl]-6-hydroxy-1,4-dihydropyrimidin-4-one]",0.01 to 10
7,"CCCCc1nc(=O)c(C(=O)N2CCC(c3cccc(F)c3)C2)c(O)n1-c1c(OC)cccc1OC (single isomer, unassigned) [Example 78, 2-butyl-1-(2,6-dimethoxyphenyl)-5-[3-(3-fluorophenyl)pyrrolidine-1-carbonyl]-6-hydroxy-1,4-dihydropyrimidin-4-one]",0.01 to 10
8,"CCCCc1nc(=O)c(C(=O)N2CC[C@H](c3ccccc3)C2)c(O)n1[C@H](C)c1ccccc1OC [Example 122, 2-butyl-6-hydroxy-3-[(1R)-1-(2-methoxyphenyl)ethyl]-5-[(3R)-3-phenylpyrrolidine-1-carbonyl]-3,4-dihydropyrimidin-4-one]",0.01 to 10

# Same assay, conditions: read-out: hAPJ cAMP EC50 Potency range
row,EC50 [nM],Structure (SMILES)
1,0.01 to 10,"CCCCc1nc(=O)c(C(=O)N2CCC(Oc3cc(F)ccc3Cl)CC2)c(O)n1-c1c(OC)cccc1OC [Example 385, 2-butyl-5-(4-(2-chloro-5-fluorophenoxy)piperidine-1-carbonyl)-1-(2,6-dimethoxyphenyl)-6-hydroxypyrimidin-4(1H)-one]"

# Reference: patent US10590113B2, “6-hydroxy-4-oxo-1,4-dihydropyrimidine-5-carboxamides as APJ agonists” (priority 2016, dated 2020)
